Where a name gives a salt, the structure may show the parent alone. Read-outs that look alike come from different tables or passages of the source.
Key:
Type in all cases: physicochemical
[1] = Compatibility of Guanfacine with Ropivacaine (appearance, pH, particulate matter); settings: for Particulate Matter 10 μm / Particulate Matter 25 μm: Guanfacine only in WFI, filtered, before mixing; for concentration of Guanfacine freebase in the WFI control: HPLC
Method: The compatibility of 1.0 mg/mL and 0.1 mg/mL solutions of Guanfacine diluted into 30 mL Ropivacaine (USP 5 mg/mL Hospira, Lot-48-031-DK) was tested. A 0.1 and 1.0 mg/mL solution of Guanfacine free base in water for injection (WFI) was prepared. For every 1.148 mg of Guanfacine-HCl there is 1 mg of Guanfacine free base. For the 0.1 mg/mL solution, 57.4 mg of Guanfacine-HCl (lot #CPL-01-2013-014-033 Laxai Avanti) was dissolved in 400 mL of WFI (Hospira 1000 mL Bag, Lot 51-114-JT). Once fully dissolved, the solution was transferred to a 500 mL volumetric flask and q.s. to volume. For the 1.0 mg/mL solution, 114.8 mg of Guanfacine-HCl was dissolved in 80 mL of WFI. Once fully dissolved, the solution was transferred to a 100 mL volumetric flask and q.s. to volume.
Two glass vials were rinsed with WFI three times and emptied. The vials were rinsed with filtered Guanfacine solution three times, 5 mLs at a time. Approximately 35 mLs of the Guanfacine solutions were filtered into the vials using a Millex GV Sterile PVDF 0.22 μm syringe filter. The particulate content in the filtered Guanfacine solutions was determined prior to adding to the Ropivacaine vial using an APSS Liquiliaz particle counter. 1.2 mLs of filtered Guanfacine solutions at 0.1 or 1.0 mg/mL were injected into three separate vials containing Ropivacaine for each concentration (1:25 dilution of Guanfacine:Ropivacaine). The concentration of Guanfacine freebase in the WFI control was 0.10 mg/mL and 1.05 mg/mL, as determined by HPLC. The compatibility solutions were not able to be analyzed by the HPLC assay for Guanfacine because Guanfacine and Ropivacaine have very similar elution times and only the Ropivacaine peak could be seen on the chromatogram.
The appearance, pH, and particulate content for one vial at each concentration at time zero, 4 to 6 hours, and 24 hours was assessed and the results are reported in Table 1, below.

[2] = Chemical stability of Guanfacine solutions in WFI at room temperature (vials, IV bags; HPLC); settings: for degraded at 72 h: 0.5 mg/mL
Method: Guanfacine HCl powder (Laxai Avanti, Lot CPL-01-2013-014-033) was dissolved in WFI at a concentration of 0.5 mg/mL, passed through a 0.22 μm PVDF membrane in a biosafety cabinet, and then filled into 20 mL glass vials (particle free), or 150 ml polyolefin IV bags. The vials and IV bags were stored at room temperature conditions. The Guanfacine solutions in the vials and IV bags were at pH 5.7 and 5.0, respectively. After 72 hours at room temperature the Guanfacine solution in the vials formed a degradation product at 0.23% and the Guanfacine solution in the IV bags formed a degradation product at 0.16%.
Additionally, Guanfacine HCl (Laxai Avanti, Lot CPL-01-2013-014-033) was dissolved in WFI to a final concentration of 1.14 mg/mL, pH 4.5, passed through a 0.22 μm PVDF membrane in a biosafety cabinet, and then filled into glass vials. The glass vials were stored at room temperature conditions.

[3] = Guanfacine solubility at pH 7.0 and 8.0; settings: for solubility at 1 h: sodium phosphate buffer, aqueous buffer, 0.22 μm filtered, HPLC, read-out: concentration of filtered sample (solubility)
Method: Stock solutions of acetic acid and sodium acetate were used for making another pH 4.0 sample and a pH 5.0 sample. For the pH 4.0 sample, 920 μL of acetic acid was added to 80 μL of sodium acetate and then the final solution was prepared as described above to achieve a 5 mM buffer concentration. For the pH 5.0 sample, 700 μL of acetic acid was added to 1,300 μL of sodium acetate and 1.0 mLs of that buffer stock solution was added to make a final buffer concentration of 20 mM. With the exception of the buffer concentration, the pH 5.0 sample solution was completed as described above. Another sample solution was also made at 20 mM sodium acetate, pH 5.0, except the solvent was sparged with nitrogen and the head space of the vial was purged with nitrogen just prior to stoppering in order to remove air from the sample. For the pH 6.0 sample, a stock solution with 1,840 μL of 0.5 M sodium phosphate monobasic and 160 μL of 0.5 M sodium phosphate dibasic was made that was then diluted to 10 mM sodium phosphate by adding 1.0 mL to a final of 50 grams of solution. The solution was then completed as described previously.
Follow up testing was done to confirm that Guanfacine solubility was lower at pH 7.0 and 8.0 compared to the other samples made at pH levels≤6.0. For the pH 7.0 sample, a stock solution of 0.192 mL of 0.5 M sodium phosphate monobasic and 0.208 mLs of 0.5 M sodium phosphate dibasic was added to a glass tube followed by ~8.0 mLs of WFI and ~11.5 mg of Guanfacine-HCl. The solution was then adjusted to pH 7.0 with a solution of 0.2 N NaOH and adjusted to a volume of 10 mLs with WFI. For the pH 8.0 sample, a stock solution of 0.028 mL of 0.5 M sodium phosphate monobasic and 0.372 mLs of 0.5 M sodium phosphate dibasic was added to a glass tube followed by ~8.0 mLs of WFI and 11.48 mg of Guanfacine-HCl. The solution was then adjusted to pH 8.0 with a solution of 0.2 N NaOH and adjusted to a volume of 10 mLs with WFI. […] After 1 hour of sonication both samples were then filtered through a 0.22 μm PVDF filter and analyzed by HPLC. The concentration of the filtered pH 7.0 sample was ~0.35 mg/mL and the concentration of the filtered pH 8.0 sample was ~0.12 mg/mL. Therefore Guanfacine-HCl was less soluble at pH 7.0 and 8.0 compared to pH levels of 6.0 and lower.

N=C(N)NC(=O)Cc1c(Cl)cccc1Cl [Guanfacine]
compatibility with Ropivacaine ([1]; 1.0 mg/mL in WFI, 1:25 dilution of Guanfacine to Ropivacaine): compatible with Ropivacaine
Particulate Matter 10 μm ([1]; 0.1 mg/mL): 0 Particles per mL
Particulate Matter 25 μm ([1]; 0.1 mg/mL): 0 Particles per mL
Particulate Matter 10 μm ([1]; 1 mg/mL): 6 Particles per mL
Particulate Matter 25 μm ([1]; 1 mg/mL): 0 Particles per mL
concentration of Guanfacine freebase in the WFI control ([1]; nominal 0.1 mg/mL): 100 µg/mL
concentration of Guanfacine freebase in the WFI control ([1]; nominal 1.0 mg/mL): 1050 µg/mL
Area % of guanfacine peak (peak 1) ([2]; 0.5 mg/mL in WFI in IV bags, pH 5.0, time zero, RRT 1.00): 99.94%
Area % of peak 2 (degradation product) ([2]; 0.5 mg/mL in WFI in IV bags, pH 5.0, time zero, RRT 8.77): 0.06%
Area % of peak 2 ([2]; 0.5 mg/mL in WFI in vials, pH 5.7, 24 hours, RRT 1.31): 0.02%
Area % of peak 2 ([2]; 0.5 mg/mL in WFI in vials, pH 5.7, 72 hours, RRT 1.32): 0.01%
Area % of peak 3 ([2]; 0.5 mg/mL in WFI in vials, pH 5.7, 72 hours, RRT 4.31): 0.01%
Area % of guanfacine peak (peak 1) ([2]; 0.5 mg/mL in WFI in vials, pH 5.7, time zero, RRT 1.00): 99.94%
Area % of peak 2 ([2]; 0.5 mg/mL in WFI in vials, pH 5.7, time zero, RRT 1.31): 0.01%
Area % of peak 4 (degradation product) ([2]; 0.5 mg/mL in WFI in vials, pH 5.7, time zero, RRT 8.58): 0.05%
remaining at 24 h ([2]; water, 0.5 mg/mL in WFI in IV bags, pH 5.0, 24 hours, RRT 1.00, read-out: Area % of guanfacine peak (peak 1)): 99.8%
degraded at 24 h ([2]; water, 0.5 mg/mL in WFI in IV bags, pH 5.0, 24 hours, RRT 8.79, read-out: Area % of peak 2 (degradation product)): 0.15%
remaining at 72 h ([2]; water, 0.5 mg/mL in WFI in IV bags, pH 5.0, 72 hours, RRT 1.00, read-out: Area % of guanfacine peak (peak 1)): 99.8%
remaining at 24 h ([2]; water, 0.5 mg/mL in WFI in vials, pH 5.7, 24 hours, RRT 1.00, read-out: Area % of guanfacine peak (peak 1)): 99.9%
degraded at 24 h ([2]; water, 0.5 mg/mL in WFI in vials, pH 5.7, 24 hours, RRT 8.58, read-out: Area % of peak 4 (degradation product)): 0.1%
remaining at 72 h ([2]; water, 0.5 mg/mL in WFI in vials, pH 5.7, 72 hours, RRT 1.00, read-out: Area % of guanfacine peak (peak 1)): 99.8%
degraded at 72 h ([2]; water, IV bags, pH 5.0, 72 hours at room temperature, read-out: degradation product formed): 0.16%
degraded at 168 h ([2]; water, glass vials, pH 4.5, one week at room temperature, 1.14 mg/mL, read-out: degradation product formed): 0.26%
degraded at 72 h ([2]; water, vials, pH 5.7, 72 hours at room temperature, read-out: degradation product formed): 0.23%
dissolution at 1 mg/mL ([3]; pH 7.0, 1 mg/mL): did not completely dissolve

N=C(N)NC(=O)Cc1c(Cl)cccc1Cl [Guanfacine-HCl, N-amidino-2-(2,6-dichlorophenyl) acetamide monohydrochloride]
Area % of peak 2 ([2]; 1.14 mg/mL Guanfacine-HCl in WFI, pH 4.5, glass vials, 1 week, RRT 1.44): 0.02%
Area % of peak 3 (degradation product) ([2]; 1.14 mg/mL Guanfacine-HCl in WFI, pH 4.5, glass vials, 1 week, RRT 8.72, 10080 min): 0.26%
Area % of guanfacine peak (peak 1) ([2]; 1.14 mg/mL Guanfacine-HCl in WFI, pH 4.5, glass vials, time zero, RRT 1): 99.98%
Area % of peak 2 ([2]; 1.14 mg/mL Guanfacine-HCl in WFI, pH 4.5, glass vials, time zero, RRT 1.45): 0.02%
remaining at 168 h ([2]; water, 1.14 mg/mL Guanfacine-HCl in WFI, pH 4.5, glass vials, 1 week, RRT 1, read-out: Area % of guanfacine peak (peak 1)): 99.7%
solubility compared to pH levels of 6.0 and lower ([3]; pH 7.0 and 8.0): less soluble
appearance of solution ([3]; pH 7.0 and pH 8.0 samples (both), after 1 hour of sonication): cloudy and contained precipitate
solubility at 1 h ([3]; pH 7.0, sodium phosphate, after 1 hour of sonication): ~350 µg/mL
solubility at 1 h ([3]; pH 8.0, sodium phosphate, after 1 hour of sonication): ~120 µg/mL
